Here are results for 1 compound from PMC11648915, “Identification and development of TRPM4 antagonists to counteract neuronal excitotoxicity” (iScience, 2024).

The target of one series is T1, human TRPM5 (Homo sapiens, UniProt Q9NZQ8).
T1 sequence (Q9NZQ8 1-1165): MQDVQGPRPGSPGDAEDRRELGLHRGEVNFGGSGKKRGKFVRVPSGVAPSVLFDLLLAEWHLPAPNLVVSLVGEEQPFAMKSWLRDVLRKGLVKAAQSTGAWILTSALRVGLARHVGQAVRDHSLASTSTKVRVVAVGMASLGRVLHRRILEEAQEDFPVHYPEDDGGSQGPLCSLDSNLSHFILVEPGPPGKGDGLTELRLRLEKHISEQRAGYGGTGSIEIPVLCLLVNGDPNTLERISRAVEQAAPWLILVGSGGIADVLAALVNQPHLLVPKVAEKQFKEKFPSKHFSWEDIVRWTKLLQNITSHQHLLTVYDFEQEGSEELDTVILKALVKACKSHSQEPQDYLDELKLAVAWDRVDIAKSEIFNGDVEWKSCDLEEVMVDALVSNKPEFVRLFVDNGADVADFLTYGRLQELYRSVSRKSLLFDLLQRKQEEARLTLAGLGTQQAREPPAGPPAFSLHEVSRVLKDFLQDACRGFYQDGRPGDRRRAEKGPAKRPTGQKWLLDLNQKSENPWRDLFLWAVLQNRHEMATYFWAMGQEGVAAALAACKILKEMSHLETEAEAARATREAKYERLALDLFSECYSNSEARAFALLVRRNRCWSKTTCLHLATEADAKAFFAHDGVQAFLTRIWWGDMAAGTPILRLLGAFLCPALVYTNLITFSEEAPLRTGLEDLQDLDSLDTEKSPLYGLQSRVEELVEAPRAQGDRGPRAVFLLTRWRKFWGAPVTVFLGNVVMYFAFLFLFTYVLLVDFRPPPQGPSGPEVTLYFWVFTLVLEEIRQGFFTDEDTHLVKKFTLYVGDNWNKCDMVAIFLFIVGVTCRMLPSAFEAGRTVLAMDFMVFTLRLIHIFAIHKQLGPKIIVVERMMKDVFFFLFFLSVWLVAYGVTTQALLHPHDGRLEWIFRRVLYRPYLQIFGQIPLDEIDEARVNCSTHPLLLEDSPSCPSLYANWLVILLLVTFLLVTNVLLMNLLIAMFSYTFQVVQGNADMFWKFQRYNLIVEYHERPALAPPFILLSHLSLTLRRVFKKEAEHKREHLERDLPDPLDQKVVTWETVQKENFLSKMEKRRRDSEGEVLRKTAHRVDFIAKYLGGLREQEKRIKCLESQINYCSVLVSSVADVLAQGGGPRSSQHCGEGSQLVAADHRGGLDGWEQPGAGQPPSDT
Put plainly: QPatch automated patch clamp on TRPM5-expressing HEK293 cells. Type of series: cell-based. Conditions: hsTRPM5-expressing HEK293 cells. From the text:
The counter screening phase involved the inclusion of hsTRPM5-expressing HEK293 cells, as closest homologue, and the parental HEK293 cell line to evaluate selectivity. […] Based on categorization of biological activity, mass spectrometry quality control, and aspects of medicinal chemistry, we prioritized 144 selective hsTRPM4 compounds. These compounds were then subjected to automated patch clamp electrophysiology measurements (QPatch[58]) to evaluate their activity profiles and IC50 values (Figures 1A, S1, and S2).
QPatchHTX, an automated electrophysiology platform, was used in single hole mode. One day before use human TRPM4- or TRPM5-expressing HEK293 cells were seeded in a T75 flask at a density of 53k cells per cm^2 and at passages < 23. For QPatch assays, cells were harvested and re-suspended in SFM (Gibco, 11686029). The extracellular solution was (in mM): CaCl2 (7), MgCl2 (2), KCl (5), HEPES (10), NaCl (70), NMDG (70); pH 7.4 with NaOH. The intracellular solution was (in mM): HEPES (10), NMDG (100), NaCl (50), EGTA (20), MgCl2 (1), CaCl2 (21); pH 7.2 with HCl. After break-in, channels were consistently open and current through the channels could be observed at a voltage ramp from –100 mV to +100 mV over 500 ms. This protocol was repeated every 7 seconds. After saline and vehicle application, the channel was desensitized and residual current was used as baseline. FFA was used as reference compound and applied cumulatively with each concentration incubating at a minimum of 20 voltage protocol runs (140 seconds) with the current after addition of FFA being calculated as full block. […] Each compound was measured at least 3 time independently.
(Patch clamp records ionic current or voltage across a cell membrane.)

The nature of series [1]: Microsome clearance (mouse). The series is classed as in vitro ADME. Conditions: mouse liver microsomes, 45 min, NADPH. The procedure: (§1) Human or mouse liver microsomes were incubated with the test compound at a concentration of 1 μM for 45 min in the presence of cofactor (NADPH in excess). Samples were collected at various time points, and % remaining of test compound was determined using mass spectrometry (LC-MS/MS) to calculate hepatic clearance rate (L/h/kg).
Background: Liver microsomes are a subcellular fraction often used to study metabolism.

The nature of series [2]: Microsome clearance (human). The series is classed as in vitro ADME. Particulars: human liver microsomes, 45 min, NADPH, read-out: Microsomes (h) clearance (converted). Here is the method:
as §1

Another series has as its target T2, CYP2D6 (Homo sapiens, UniProt P10635).
T2 construct: purchased BD Gentest
Put plainly: CYP inhibition assay 2D6. The series is classed as in vitro ADME. Here is the method:
(§2) The half-maximal inhibitory concentration (IC50) for cytochrome P450 (CYP) enzymes was determined using an in vitro enzyme inhibition assay. Recombinant CYP enzymes or human liver microsomes from BD Gentest, in 0.1 M phosphate buffer pH 7.4, containing native CYP enzymes were incubated with the test compound at various concentrations (1, 3, 10 and 30 μM) and containing 0.5% DMSO and 0.1% BSA final concentrations. 1 mM of NADPH cofactor was added and the reaction was started by a rapid increase of temperature until 37°C.

The target of another series is T3, CYP 2C19 (Homo sapiens, UniProt P33261).
T3 construct: purchased BD Gentest
T3 sequence (P33261 whole entry): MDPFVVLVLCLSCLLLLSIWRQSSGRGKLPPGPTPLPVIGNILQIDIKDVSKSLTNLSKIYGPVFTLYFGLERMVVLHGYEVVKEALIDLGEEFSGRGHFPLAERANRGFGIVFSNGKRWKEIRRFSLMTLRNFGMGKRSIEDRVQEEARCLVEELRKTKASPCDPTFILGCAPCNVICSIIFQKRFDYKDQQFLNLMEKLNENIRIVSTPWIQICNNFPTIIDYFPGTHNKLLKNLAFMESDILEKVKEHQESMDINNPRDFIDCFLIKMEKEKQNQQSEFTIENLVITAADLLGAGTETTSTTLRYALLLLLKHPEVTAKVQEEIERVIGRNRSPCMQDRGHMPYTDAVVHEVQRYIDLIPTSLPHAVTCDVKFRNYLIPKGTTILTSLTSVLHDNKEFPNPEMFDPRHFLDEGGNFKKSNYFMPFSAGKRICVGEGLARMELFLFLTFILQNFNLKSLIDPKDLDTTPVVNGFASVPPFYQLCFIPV
As to the kind of experiment: CYP inhibition assay 2C19. Type of series: in vitro ADME. The procedure: as §2

A short description of series [3]: Caco-2 permeability assay. The series is classed as in vitro ADME. Particulars: human, heading: Caco-2 perm., direction not given. Here is the method:
Caco-2 permeability was evaluated using a cell-based assay with Caco-2 cells cultured on permeable membrane inserts. The test compound was added at 10 μM to the apical (donor) compartment, and samples were collected from the basolateral (receiver) compartment at 120 min. The test compound was also added at 10 μM to the basolateral (donor) compartment, and samples were collected from the apical (receiver) compartment at 120 min. The amount of the compound in both compartments was measured using mass spectrometry (LC-MS/MS). The permeability coefficient (Papp, nm/s) apical to basolateral and basolateral to apical, and an efflux ratio were calculated.
(In general: Caco-2 monolayers are a common model of the intestinal barrier.)

Series [4] can be described thus: Parallel Artificial Membrane Permeability Assay (PAMPA). The series is classed as in vitro ADME. Conditions: PAMPA; pH not given; read-out: PAMPA perm. The procedure:
Parallel Artificial Membrane Permeability Assay (PAMPA) was performed using artificial lipid membrane layers to assess passive permeability of the test compound. Test compounds were diluted to 200 μM in system buffer at pH 5.0, 6.2 and 7.4. The solutions were filtered and 150 μL transferred to a High Sensitivity 96 well UV plate. This was analysed by UV as the reference plate. A 200 μL sample of the 200 μM solution was transferred to the ‘donor’ plate of the PAMPA pIon sandwich plate system. 200 μL of acceptor sink buffer was transferred to the ‘acceptor’ plate which had been previously treated with GIT-O lipid solution across the well filter. Donor and acceptor plates were sandwiched and kept in a humid environment at room temperature for 16 hours. On completion of the incubation the donor and acceptor plates were separated. 150 μL of solution was transferred from each of the donor and acceptor PAMPA sandwich plates into High Sensitivity 96 well UV plates for analysis by UV. at different time points. The concentration of the compound in the acceptor compartment was determined using mass spectrometry. The permeability coefficient (Papp) was calculated based on the rate of appearance of the compound in the acceptor compartment (nm/s).

T2 sequence (P10635 whole entry): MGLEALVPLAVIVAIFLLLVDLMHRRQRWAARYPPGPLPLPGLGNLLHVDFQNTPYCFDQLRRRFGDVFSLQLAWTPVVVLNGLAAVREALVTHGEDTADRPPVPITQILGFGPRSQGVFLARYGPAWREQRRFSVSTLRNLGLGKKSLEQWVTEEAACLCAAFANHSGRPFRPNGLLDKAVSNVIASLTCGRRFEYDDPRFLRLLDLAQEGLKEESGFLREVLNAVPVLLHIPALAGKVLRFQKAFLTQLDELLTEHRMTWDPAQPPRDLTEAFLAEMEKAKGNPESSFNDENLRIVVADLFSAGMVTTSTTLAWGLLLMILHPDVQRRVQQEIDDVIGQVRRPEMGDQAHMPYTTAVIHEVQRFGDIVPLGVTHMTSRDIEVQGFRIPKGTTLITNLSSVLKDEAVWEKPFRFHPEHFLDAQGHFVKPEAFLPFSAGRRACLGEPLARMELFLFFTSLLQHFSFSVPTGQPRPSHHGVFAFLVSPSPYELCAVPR

For the compound `CNc1cccc(-c2ccccc2NCc2nc3ccccc3o2)c1` [CMP462], the figures for the concentration for half-maximal inhibition (IC50) against human TRPM5, at CYP2D6 and on CYP 2C19 were more than 30 µM, more than 50 µM and 4 µM, respectively. Also, the CLint scaled at 1 μM in series [1] was 900 mL/min/kg; in series [2], 302 mL/min/kg. The Papp at 120 min, 10 μM in series [3] came out at 23.3 ×10⁻⁶ cm/s. Also, the Papp at 16 h, 200 μM in series [4] was determined as 25 ×10⁻⁶ cm/s.

For orientation: IC50 means the point on the concentration scale where inhibition reaches its midpoint. Read a low IC50 as greater potency.
